Laboratory results from ChEMBL document CHEMBL5331068, “Briarane-type diterpenoids, the inhibitors of osteoclast formation by interrupting Keap1-Nrf2 interaction and activating Nrf2 pathway” (Eur J Med Chem, 2023).
Calls of active or inactive are those of the source. The rule behind the calls is not given here.

What was measured:
[1] = target: MAP kinase p38 (Mus musculus) (UniProt P47811+O08911+Q9WUI1+Q9Z1B7); assay: Inhibition of RANKL-induced p38 MAPK phosphorylation in C57BL/6 mouse BMDM cells incubated for 60 mins by Western blot analysis; format: cell-based
[2] = target: T1, Nuclear factor erythroid 2-related factor 2 (Mus musculus) (UniProt Q60795); assay: Stabilization of Nrf2 in mouse RAW264.7 cells assessed as decrease in Nrf2 ubiquitination at 10 uM incubated for 48 hrs by Western blot based Co-immunoprecipitation analysis; format: cell-based
T1 sequence (whole entry): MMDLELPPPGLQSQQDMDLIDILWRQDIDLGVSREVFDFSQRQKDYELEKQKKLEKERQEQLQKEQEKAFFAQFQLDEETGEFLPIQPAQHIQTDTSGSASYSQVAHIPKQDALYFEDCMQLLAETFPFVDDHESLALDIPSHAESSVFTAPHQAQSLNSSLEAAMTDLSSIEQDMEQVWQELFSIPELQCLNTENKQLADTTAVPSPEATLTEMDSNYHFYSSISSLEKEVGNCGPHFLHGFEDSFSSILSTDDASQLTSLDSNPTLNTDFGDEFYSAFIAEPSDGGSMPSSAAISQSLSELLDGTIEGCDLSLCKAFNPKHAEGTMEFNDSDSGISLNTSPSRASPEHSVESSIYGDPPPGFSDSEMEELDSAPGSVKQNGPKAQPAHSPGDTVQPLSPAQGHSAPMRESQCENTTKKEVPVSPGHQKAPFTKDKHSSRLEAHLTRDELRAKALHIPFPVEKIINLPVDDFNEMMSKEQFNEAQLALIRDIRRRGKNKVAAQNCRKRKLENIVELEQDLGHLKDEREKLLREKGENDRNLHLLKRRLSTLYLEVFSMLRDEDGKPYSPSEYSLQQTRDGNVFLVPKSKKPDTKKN

BMDM [3] = assay: Anti-osteoclastogenesis activity in RANKL-induced C57BL/6 mouse BMDM cells assessed as decrease in number of F-actin ring formation at 1 to 10 uM incubated for 7 days in the presence of M-CSF by DAPI staining based fluorescence microscopic analysis; format: functional, cell-based; settings: dose 1-10 µM, time 7.0 day
BMDM [4] = assay: Anti-osteoclastogenesis activity in C57BL/6 mouse BMDM cells assessed as reduction in RANKL-induced ROS level at 5 to 10 uM incubated for 6 hrs by DCF-DA staining based fluorescence analysis; format: functional, cell-based; settings: dose 5-10 µM
[5] = target: T2, Kelch-like ECH-associated protein 1 (Homo sapiens, UniProt Q14145); assay: Binding affinity to recombinant human Keap1 by SPR analysis
T2 sequence (Q14145 whole entry): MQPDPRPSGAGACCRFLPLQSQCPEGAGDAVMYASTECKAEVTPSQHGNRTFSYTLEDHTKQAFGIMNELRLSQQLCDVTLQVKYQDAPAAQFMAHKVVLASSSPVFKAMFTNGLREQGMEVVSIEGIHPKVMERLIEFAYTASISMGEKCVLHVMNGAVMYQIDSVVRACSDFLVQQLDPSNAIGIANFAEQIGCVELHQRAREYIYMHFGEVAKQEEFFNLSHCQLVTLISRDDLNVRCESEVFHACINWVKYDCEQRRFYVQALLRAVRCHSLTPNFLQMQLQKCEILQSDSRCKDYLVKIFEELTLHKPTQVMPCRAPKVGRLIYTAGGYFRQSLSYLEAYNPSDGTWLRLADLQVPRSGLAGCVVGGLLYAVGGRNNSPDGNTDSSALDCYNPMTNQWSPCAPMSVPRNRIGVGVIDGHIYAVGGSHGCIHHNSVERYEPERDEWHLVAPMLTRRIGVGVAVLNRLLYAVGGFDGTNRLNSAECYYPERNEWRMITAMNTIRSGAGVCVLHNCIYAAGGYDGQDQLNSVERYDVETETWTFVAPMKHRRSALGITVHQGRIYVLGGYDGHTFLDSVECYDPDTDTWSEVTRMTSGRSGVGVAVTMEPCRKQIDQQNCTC

BMDM [6] = assay: Anti-osteoclastogenesis activity in RANKL-induced C57BL/6 mouse BMDM cells assessed as inhibition of NFATc1 protein level at 5 to 10 uM in the presence of M-CSF by Western blot analysis; format: functional, cell-based; settings: dose 5-10 µM
Danio rerio = assay: Anti osteoporosis activity in prednisone induced AB Zebrafish model of osteopenia assessed as increase in bone mineralization at 5 to 10 uM administered after 3 days post fertilization and measured after 6 days by Alizarin red staining based analysis; format: functional, organism-based; settings: dose 5-10 µM, time 6.0 day
[7] = Inhibition of RANKL-induced ERK phosphorylation in C57BL/6 mouse BMDM cells incubated for 60 mins by Western blot analysis; format: cell-based
BMDM [8] = assay: Anti-osteoclastogenesis activity in RANKL-induced C57BL/6 mouse BMDM cells assessed as inhibition of bone resorption by measuring downregulation of Cathepsin K expression at 5 to 10 uM in the presence of M-CSF by Western blot analysis; format: functional, cell-based; settings: dose 5-10 µM
[9] = Cytotoxicity against C57BL/6 mouse BMDM cells incubated for 48 hrs by MTT assay; format: toxicity, cell-based; settings: BMDM cells (bone marrow-derived macrophages)
[10] = target: Keap1/Nrf2 (Homo sapiens) (UniProt Q16236+Q14145); assay: Disruption of 16mer biotinylated Nrf2 (unknown origin)-Keap1 kelch domain (unknown origin) protein-protein interaction upto 100 uM by Biolayer Interferometry assay
Sequence of Keap1/Nrf2 (Homo sapiens) (Q14145 whole entry, looked up, the tested form may be a part): as the sequence (Q14145 whole entry) above
Sequence of Keap1/Nrf2 (Homo sapiens) (Q16236 whole entry, looked up, the tested form may be a part): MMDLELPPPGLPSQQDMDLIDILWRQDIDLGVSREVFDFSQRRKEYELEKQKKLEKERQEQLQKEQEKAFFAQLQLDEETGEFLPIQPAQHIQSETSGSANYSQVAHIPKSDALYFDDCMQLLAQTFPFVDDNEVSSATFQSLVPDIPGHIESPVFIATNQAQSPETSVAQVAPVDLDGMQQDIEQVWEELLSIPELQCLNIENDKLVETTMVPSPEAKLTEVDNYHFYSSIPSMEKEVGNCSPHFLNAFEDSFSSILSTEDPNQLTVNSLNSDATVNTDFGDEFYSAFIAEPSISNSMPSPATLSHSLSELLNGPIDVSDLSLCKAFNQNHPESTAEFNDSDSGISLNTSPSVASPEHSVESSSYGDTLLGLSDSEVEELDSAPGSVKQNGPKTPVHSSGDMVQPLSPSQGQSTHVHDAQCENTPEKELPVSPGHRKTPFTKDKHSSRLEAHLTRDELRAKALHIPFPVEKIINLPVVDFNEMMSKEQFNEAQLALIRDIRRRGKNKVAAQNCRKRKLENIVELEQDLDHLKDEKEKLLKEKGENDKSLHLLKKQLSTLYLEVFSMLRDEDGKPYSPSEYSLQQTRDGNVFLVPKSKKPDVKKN

[11] = target: T2, Kelch-like ECH-associated protein 1; assay: Binding affinity to recombinant human Keap1 assessed as equilibrium dissociation constant by SPR analysis
BMDM [12] = assay: Anti-osteoclastogenesis activity in C57BL/6 mouse BMDM cells transfected with Nrf2 siRNA assessed as inhibition of RANKL-induced osteoclastogenesis at 10 uM incubated for 5 days in the presence of M-CSF by TRAP-staining based microscopic analysis; format: functional, cell-based; settings: time 5.0 day
BMDM [13] = assay: Anti-osteoclastogenesis activity in RANKL-induced C57BL/6 mouse BMDM cells assessed as suppression of early stage osteoclast differentiation at 10 uM incubated from day 1 to day 3 in the presence of M-CSF by TRAP-staining based microscopic analysis; format: functional, cell-based; settings: time 2.0 day
BMDM [14] = assay: Anti-osteoclastogenesis activity in RANKL-induced C57BL/6 mouse BMDM cells assessed as increase in HO-1 expression at 5 to 10 uM in the presence of M-CSF by Western blot analysis; format: functional, cell-based; settings: dose 5-10 µM
BMDM [15] = assay: Anti-osteoclastogenesis activity in C57BL/6 mouse BMDM cells assessed as inhibition of RANKL-induced osteoclastogenesis at 10 uM incubated for 7 days in the presence of M-CSF by TRAP-staining based microscopic analysis relative to control; format: functional; settings: C57BL/6, BMDM, 168 h, time 7 day
[16] = target: T3, NF-kappa-B inhibitor alpha (Mus musculus) (UniProt Q9Z1E3); assay: Inhibition of RANKL-induced IkappaBalpha phosphorylation in C57BL/6 mouse BMDM cells incubated for 60 mins by Western blot analysis; format: cell-based
T3 sequence (whole entry): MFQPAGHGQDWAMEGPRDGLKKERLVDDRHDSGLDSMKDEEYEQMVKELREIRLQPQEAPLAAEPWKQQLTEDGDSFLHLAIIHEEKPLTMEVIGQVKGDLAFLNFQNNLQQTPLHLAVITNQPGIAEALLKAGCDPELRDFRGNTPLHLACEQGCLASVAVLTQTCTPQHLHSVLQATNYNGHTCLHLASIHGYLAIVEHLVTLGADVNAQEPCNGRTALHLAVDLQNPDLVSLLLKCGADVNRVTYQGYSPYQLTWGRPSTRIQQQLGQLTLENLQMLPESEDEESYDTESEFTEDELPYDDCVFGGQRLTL

BMDM [17] = assay: Anti-osteoclastogenesis activity in RANKL-induced C57BL/6 mouse BMDM cells assessed as downregulation of cathepsin K mRNA expression at 5 to 10 uM by qRT-PCR analysis; format: functional, cell-based; settings: dose 5-10 µM
RAW264.7 = assay: Anti-osteoclastogenesis activity in RANKL-induced mouse RAW264.7 cells transfected with Nrf2 siRNA assessed as increase in c-fos expression level incubated for 3 days by Western blot analysis; format: functional, cell-based; settings: time 3.0 day
BMDM [18] = assay: Anti-osteoclastogenesis activity in RANKL-induced C57BL/6 mouse BMDM cells assessed as inhibition of NFATc1 translocation into nuclei incubated for 3 days by DAPI staining based confocal microscopic analysis; format: functional, cell-based; settings: time 3.0 day
BMDM [19] = assay: Anti-osteoclastogenesis activity in RANKL-induced C57BL/6 mouse BMDM cells assessed as downregulation of NFATc1 mRNA expression at 5 to 10 uM by qRT-PCR analysis; format: functional, cell-based; settings: dose 5-10 µM

For C=C1[C@H]2O[C@]3([C@@H](C)C(=O)O[C@H]3[C@H]1Cl)[C@@H](OC(C)=O)[C@H]1[C@]3(CC[C@H](OC(C)=O)[C@]1(C)[C@@H](OC(C)=O)[C@@H]2OC(C)=O)CO3, the inhibition [1] was “Active”, the Activity [2] was “Active” and the Activity (BMDM [3]) was “Active”. For the same compound, the Activity (BMDM [4]) was “Active”, the Activity [5] was “Active” and the Activity (BMDM [6]) was “Active”. For the same compound, the Activity (Danio rerio) was “Active”, the inhibition [7] was “Active” and the Activity (BMDM [8]) was “Active”. For the same compound, the CC50 at 48 h [9] was greater than 50 µM, the Activity [10] was “Active” and the Kd [11] was 6.4 µM. For the same compound, the Activity (BMDM [12]) was “inactive”, the Activity (BMDM [13]) was “Active” and the Activity (BMDM [14]) was “Active”. The inhibition at 10 µM (BMDM [15]) was 100%, the inhibition [16] was “Active” and the Activity (BMDM [17]) was “Active”. The Activity (RAW264.7) was “inactive”, the Activity (BMDM [18]) was “Active” and the Activity (BMDM [19]) was “Active”.
